Test results as given in patent US8003660B2, “Modulators of muscarinic receptors” (Vertex Pharmaceuticals Incorporated, priority 2006, dated 2011).
Read-outs that look alike come from different tables or passages of the source.

Experiments:
Format in all cases: cell-based
[1] = biological target: T1, M3 muscarinic receptor (Homo sapiens, UniProt P20309); assay: Functional mobilization of intracellular calcium (FLIPR) in CHO cells expressing M3; conditions: for EC50: CHO cells expressing M3, FLIPR calcium; for Emax: CHO; for M3 Activity: CHO cells expressing M3, FLIPR calcium assay
T1 construct: expressed in transfected cells; host or cells: CHO (M3-CHO)
T1 sequence (P20309 whole entry): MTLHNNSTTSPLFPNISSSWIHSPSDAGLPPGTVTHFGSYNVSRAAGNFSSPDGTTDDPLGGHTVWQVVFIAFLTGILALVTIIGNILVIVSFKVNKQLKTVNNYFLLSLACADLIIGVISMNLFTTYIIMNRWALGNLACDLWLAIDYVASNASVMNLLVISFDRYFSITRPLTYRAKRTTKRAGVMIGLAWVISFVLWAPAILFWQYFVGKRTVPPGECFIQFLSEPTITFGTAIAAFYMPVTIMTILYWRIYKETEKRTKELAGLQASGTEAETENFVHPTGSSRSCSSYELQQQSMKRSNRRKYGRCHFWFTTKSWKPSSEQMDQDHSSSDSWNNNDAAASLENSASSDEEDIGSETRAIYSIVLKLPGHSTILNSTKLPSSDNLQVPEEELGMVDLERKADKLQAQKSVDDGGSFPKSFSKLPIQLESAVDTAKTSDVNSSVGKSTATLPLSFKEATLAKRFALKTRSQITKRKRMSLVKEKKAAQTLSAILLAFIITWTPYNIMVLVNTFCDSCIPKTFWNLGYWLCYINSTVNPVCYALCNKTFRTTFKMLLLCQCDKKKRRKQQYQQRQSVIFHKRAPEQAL
Description: (§1) Functional Mobilization of Intracellular Calcium to Determine Muscarinic Receptor Activity:
(§2) CHO cells expressing muscarinic receptors (M1 to M5) are grown as monolayers in tissue culture flasks at 37° C. in a humidified atmosphere containing 5% CO2 and passaged every 3-5 days. The growth media is Dulbecco's modified eagles medium (DMEM, Gibco Cat# 12430-054), containing 25 mM Hepes and supplemented with Fetal Bovine Serum (Hyclone, cat# SH30071.03), 0.1 mM of MEM non-essential amino acids (GIBCO, Cat# 11140-050), 1 mM MEM Sodium Pyruvate (GIBCO Cat# 11360-070) and 100 units/ml of Penicillin G and 100 μg/ml of Streptomycin (GIBCO Cat# 15140-122). The recombinant muscarinic receptor cell lines are grown under antibiotic pressure with media containing 25 μg/ml zeocin and 500 μg/ml G418 (M1-CHO), 4 μg/ml puromycin, 50 μg/ml zeocin and 2.5 μg/ml blasticidin (M2 and M4-CHO) or 50 μg/ml zeocin and 4 μg/ml puromycin (M3 and M5-CHO).
(§3) Cells are harvested at 80-90% confluence using Versene (GIBCO Cat# 15040-066), collected by centrifugation and seeded 18-24 hrs prior to running the calcium assay at a density of 5,000-10,000 cells/well in […], clear-bottomed 384-well plates (BD Biocoat, poly-D-lysine, Cat#356663). The day of the experiment, the cells are washed with a plate washer (Bioteck Instruments, ELX 405) using bath 1 buffer (140 mM NaCl, 4,5 mM KCl, 2 mM CaCl2, 1 mM MgCl2, 10 mM Hepes-Na, 10 mM Glucose, pH 7.4, with NaOH) containing 1 mM Probenecid. Next, the calcium dye Fluo-3 (25 μl/well of Fluo-3 AM at 4 μM, Molecular Probes F-1241, in Bath 1 buffer containing 1 mM Probenecid) is added to the 25 μl of Bath 1 remaining in each well after the plate wash and the dye is loaded at 37° C. in the tissue culture incubator for 60-90 min. The fluorescent dye is removed using the plate washer with Bath 1 containing 1 mM Probenecid, leaving 25 μl/well of this solution after the wash. Alternatively, cells can be loaded with the calcium indicator from Molecular Devices (Calcium 3 Assay Reagents, Cat #R7181) adding 5 μl of a 5× solution dye in Bath 1 containing 1 mM Probenecid (10 ml per dye flask cat#R7182 to generate a solution […]) to 20 μl of the same buffer. After loading for 60 min, the experiment can be run without having to remove the dye.
(§4) Compounds are prepared at a 2× fold concentration in a 96-well plate (round bottom, Costar Corning cat#3656), by reconstituting the pre-spotted compounds in bath 1 containing 1 mM probenecid. The final concentration DMSO is 0.5%, and the amount of DMSO is normalized across the assay plate. To determine an agonist action of the compounds on muscarinic receptors, the reconstituted compounds are added (25 μl compound/well) to the cell assay plate (containing 25 μl/well) using the multi-channel robotic system of the FLIPR 3 Instrument (Molecular Devices, Sunnyvale, Calif.). To determine a functional inhibitory action of the compounds on muscarinic receptors, the reconstituted compounds are added (25 μl compound/well) to the assay plate and pre-incubated for 15 min prior to adding 25 μl of Carbachol at 3× the EC80 for each muscarinic subtype. Alternatively, the compounds can be co-applied simultaneously with the agonist. In both assay modes, the fluorescence is recorded for 60 sec (excitation wavelength is […] and emission wavelength 540 nm) using the FLIPR 3 instrument.
(§5) The potency, efficacy and selectivity of the muscarinic compounds were evaluated by screening the compound activity across the whole family (M1 to M5 cells). Compounds were also screened for activity on other proteins such as other GPCRs and ion channels to determine selectivity on M4 receptors.

[2] = biological target: T2, M1 muscarinic receptor (Homo sapiens, UniProt P11229); assay: Functional mobilization of intracellular calcium (FLIPR) in CHO cells expressing M1; conditions: for EC50: CHO cells expressing M1, FLIPR calcium; for Emax: CHO; for M1 Activity: CHO cells expressing M1, FLIPR calcium assay
T2 construct: expressed in transfected cells; host or cells: CHO (M1-CHO)
T2 sequence (P11229 1-460): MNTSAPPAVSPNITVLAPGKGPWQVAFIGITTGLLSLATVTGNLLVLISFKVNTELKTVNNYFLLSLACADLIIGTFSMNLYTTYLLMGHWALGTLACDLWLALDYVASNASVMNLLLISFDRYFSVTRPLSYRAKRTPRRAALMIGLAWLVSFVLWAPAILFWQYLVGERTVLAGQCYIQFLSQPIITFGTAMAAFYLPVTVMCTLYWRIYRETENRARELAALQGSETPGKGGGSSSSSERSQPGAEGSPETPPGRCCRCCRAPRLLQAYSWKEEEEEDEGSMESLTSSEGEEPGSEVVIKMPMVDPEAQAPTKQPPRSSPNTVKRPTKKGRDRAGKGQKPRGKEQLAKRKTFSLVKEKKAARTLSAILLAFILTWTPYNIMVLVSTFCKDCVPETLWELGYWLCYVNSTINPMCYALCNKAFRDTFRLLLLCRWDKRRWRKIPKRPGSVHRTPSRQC
Description: as §1, §2, §3, §4, §5

[3] = biological target: T3, M4 muscarinic receptor (Homo sapiens, UniProt P08173); assay: Functional mobilization of intracellular calcium (FLIPR) in CHO cells expressing M4; conditions: for EC50: CHO cells expressing M4, FLIPR calcium; for Emax: CHO; for M4 Activity: CHO cells expressing M4, FLIPR calcium assay
T3 construct: expressed in transfected cells; host or cells: CHO (M4-CHO)
T3 sequence (P08173 1-479): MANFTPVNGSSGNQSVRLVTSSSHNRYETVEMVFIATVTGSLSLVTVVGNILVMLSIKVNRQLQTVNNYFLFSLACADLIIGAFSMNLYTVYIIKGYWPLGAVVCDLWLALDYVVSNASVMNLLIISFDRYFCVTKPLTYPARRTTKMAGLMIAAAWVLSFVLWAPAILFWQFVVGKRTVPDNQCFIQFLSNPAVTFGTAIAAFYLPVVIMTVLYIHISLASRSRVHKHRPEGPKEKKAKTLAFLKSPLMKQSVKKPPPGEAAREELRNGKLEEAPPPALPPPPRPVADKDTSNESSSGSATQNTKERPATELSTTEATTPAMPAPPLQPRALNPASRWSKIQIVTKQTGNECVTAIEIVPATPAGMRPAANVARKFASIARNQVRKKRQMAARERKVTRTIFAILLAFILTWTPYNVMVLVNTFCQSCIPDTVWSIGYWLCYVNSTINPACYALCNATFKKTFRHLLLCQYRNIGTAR
Description: as §1, §2, §3, §4, §5

[4] = biological target: T4, M2 muscarinic receptor (Homo sapiens, UniProt P08172); assay: Functional mobilization of intracellular calcium (FLIPR) in CHO cells expressing M2; conditions: for EC50: CHO cells expressing M2, FLIPR calcium; for Emax: CHO; for M2 Activity: CHO cells expressing M2, FLIPR calcium assay
T4 construct: expressed in transfected cells; host or cells: CHO (M2-CHO)
T4 sequence (P08172 1-466): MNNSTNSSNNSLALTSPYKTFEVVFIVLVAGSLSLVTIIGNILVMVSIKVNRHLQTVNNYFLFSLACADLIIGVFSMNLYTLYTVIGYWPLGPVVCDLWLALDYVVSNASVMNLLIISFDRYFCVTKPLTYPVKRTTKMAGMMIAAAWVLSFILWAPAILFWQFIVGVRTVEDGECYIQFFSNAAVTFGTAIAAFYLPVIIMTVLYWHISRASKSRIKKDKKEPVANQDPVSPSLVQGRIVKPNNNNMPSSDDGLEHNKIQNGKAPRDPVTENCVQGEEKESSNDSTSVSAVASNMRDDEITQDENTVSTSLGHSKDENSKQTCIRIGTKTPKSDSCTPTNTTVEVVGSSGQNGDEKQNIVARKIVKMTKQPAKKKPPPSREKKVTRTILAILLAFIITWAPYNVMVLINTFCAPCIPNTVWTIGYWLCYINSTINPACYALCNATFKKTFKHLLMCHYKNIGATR
Description: as §1, §2, §3, §4, §5

[5] = 100% = maximum response obtained with the Carbachol control, read-out: M3 Efficacy
[6] = 100% = maximum response obtained with the Carbachol control, read-out: M1 Efficacy
[7] = 100% = maximum response obtained with the Carbachol control, read-out: M4 Efficacy
[8] = 100% = maximum response obtained with the Carbachol control, read-out: M2 Efficacy
[9] = 100% efficacy = maximum response obtained with the Carbachol control

| Structure (SMILES) | EC50 [1] | Emax [1, 5] | EC50 [2] | Emax [2, 6] | EC50 [3] | Emax [3, 7] | EC50 [4] | Emax [4, 8] | M3 Activity [1] | Emax [1, 9] | M1 Activity [2] | Emax [2, 9] | M4 Activity [3] | Emax [3, 9] | M2 Activity [4] | Emax [4, 9] |
| --- | --- | --- | --- | --- | --- | --- | --- | --- | --- | --- | --- | --- | --- | --- | --- | --- |
| CC(C)CCN1CCC2(CC[C@H](N3C(=O)CCC3=O)c3ccccc32)CC1 [compound 142] | > 5 µM | < 25% | 2 to 5 µM | 25 to 100% | > 5 µM | < 25% | > 5 µM | < 25% | – | – | – | – | – | – | – | – |
| CC(C)(C)CCN1CCC2(CC[C@@H](NC(=O)CN3CCCC3=O)c3ccc(F)cc32)CC1 [compound 76] | > 5 µM | < 25% | < 2 µM | 25 to 100% | < 2 µM | 25 to 100% | < 2 µM | 25 to 100% | – | – | – | – | – | – | – | – |
| CC(C)(C)CCN1CCC2(CC[C@@H](NC(=O)CC3CCOCC3)c3ccc(F)cc32)CC1 [compound 93] | > 5 µM | < 25% | 2 to 5 µM | 25 to 100% | < 2 µM | 25 to 100% | > 5 µM | < 25% | – | – | – | – | – | – | – | – |
| CCNC(=O)CN1CCC2(CC1)C[C@H](NC(C)=O)c1ccccc12 [compound 241] | – | – | – | – | – | – | – | – | + (activity was measured to be greater than 5.0 μM) | < 25% | + (activity was measured to be greater than 5.0 μM) | < 25% | + (activity was measured to be greater than 5.0 μM) | < 25% | + (activity was measured to be greater than 5.0 μM) | < 25% |
| CCN(C(=O)CCC(F)(F)F)[C@H]1CCC2(CCN(CCC(C)(C)C)CC2)c2ccccc21 [compound 110] | > 5 µM | < 25% | > 5 µM | 25 to 100% | < 2 µM | 25 to 100% | > 5 µM | < 25% | – | – | – | – | – | – | – | – |
| Cc1cc(C(=O)N[C@@H]2CCC3(CCN(CCC(C)(C)C)CC3)c3cc(F)ccc32)nn1C [compound 40] | > 5 µM | < 25% | < 2 µM | 25 to 100% | < 2 µM | 25 to 100% | < 2 µM | 25 to 100% | – | – | – | – | – | – | – | – |
| CN(C)C(=O)N[C@H]1CCC2(CCN(CCC(C)(C)C)CC2)c2ccccc21 [compound 175] | > 5 µM | < 25% | > 5 µM | < 25% | < 2 µM | 25 to 100% | > 5 µM | < 25% | – | – | – | – | – | – | – | – |
| CCN(C(=O)CCNC(C)=O)[C@@H]1CCC2(CCN(CCC(C)(C)C)CC2)c2ccccc21 [compound 100] | > 5 µM | < 25% | > 5 µM | < 25% | < 2 µM | 25 to 100% | > 5 µM | < 25% | – | – | – | – | – | – | – | – |
| C=CCCCN1CCC2(CC1)C[C@H](NC(C)=O)c1ccccc12 [compound 242] | – | – | – | – | – | – | – | – | + (activity was measured to be greater than 5.0 μM) | < 25% | + (activity was measured to be greater than 5.0 μM) | 25 to 100% | ++ (activity was measured to be from 2.0 μM to 5.0 μM) | 25 to 100% | + (activity was measured to be greater than 5.0 μM) | < 25% |
| CC(=O)N[C@H]1CCC2(CCN(CC(=O)C(C)(C)C)CC2)c2ccccc21 [Compound No. 130, (S)-N-(1′-(3,3-dimethyl-2-oxobutyl)-3,4-dihydro-2H-spiro[naphthalene-1,4′-piperidine]-4-yl)acetamide] | > 5 µM | < 25% | 2 to 5 µM | 25 to 100% | < 2 µM | 25 to 100% | > 5 µM | < 25% | – | – | – | – | – | – | – | – |
| CCN(C(=O)CCC(=O)NC)[C@H]1CCC2(CCN(CCC(C)(C)C)CC2)c2ccccc21 [compound 127] | > 5 µM | < 25% | < 2 µM | 25 to 100% | < 2 µM | 25 to 100% | 2 to 5 µM | < 25% | – | – | – | – | – | – | – | – |
| CCN(C(=O)[C@@H](C)OC)[C@H]1CCC2(CCN(CCC(C)(C)C)CC2)c2ccccc21 [compound 116] | > 5 µM | < 25% | > 5 µM | 25 to 100% | < 2 µM | 25 to 100% | > 5 µM | < 25% | – | – | – | – | – | – | – | – |
| C[C@H](N[C@H]1CC2(CCN(C(=O)OC(C)(C)C)CC2)c2ccccc21)c1ccccc1 [compound 275] | – | – | – | – | – | – | – | – | – | – | + (activity was measured to be greater than 5.0 μM) | < 25% | + (activity was measured to be greater than 5.0 μM) | < 25% | + (activity was measured to be greater than 5.0 μM) | < 25% |
